Reference: patent US20210024542A1 (Torcept Therapeutics, Inc., priority 2018, published 2021)
Several values for one entry are separate records, joined by “and”; a condition that tells them apart may be missing. Identical values can stand only once.

Key:
[1] = Whole blood concentrations in mice after IP dosing (LC-MS/MS); assay type: in vivo
Method: These determinations were made using protein precipitation, liquid chromatography (LC), and mass spectrometry (MS/MS). Ten μl aliquots of whole blood and matrix calibration standards were distributed in a 96-well plate; 10 μl aliquots of blank matrix for matrix blanks and control blanks were included as controls. Ten μl of water was added to each sample followed by vortexing. One hundred sixty […] of internal standard was added to each sample except the matrix blanks; 160 μl 70:30 water:acetonitrile (ACN) was added to matrix blanks. This was followed by a […]. One hundred fifty μl of the resultant supernatant was then transferred to a new 96-well plate and the samples blown to dryness at 35° C. The resultant product was then reconstituted with 90 μl ACN.

[2] = mouse, in vivo, ip, 10 mg/kg
Description: (§1) Tumor growth was monitored daily. […] Significance was set at p≤0.05.

[3] = Day 30, 10 mg/kg IP QD
Description: as §1

[4] = 2 mg/kg IP QD x 3 days, Day 1, 1.00 hrs
[5] = 2 mg/kg IP QD x 3 days, Day 1, 2.00 hrs
[6] = 2 mg/kg IP QD x 3 days, Day 1, 6.00 hrs
[7] = 2 mg/kg IP QD x 3 days, Day 1, 24.0 hrs
[8] = 2 mg/kg IP QD x 3 days, Day 2, 1.00 hrs
[9] = 2 mg/kg IP QD x 3 days, Day 2, 2.00 hrs
[10] = 2 mg/kg IP QD x 3 days, Day 2, 6.00 hrs
[11] = 2 mg/kg IP QD x 3 days, Day 2, 24.0 hrs
[12] = 2 mg/kg IP QD x 3 days, Day 3, 1.00 hrs
[13] = 2 mg/kg IP QD x 3 days, Day 3, 2.00 hrs
[14] = 2 mg/kg IP QD x 3 days, Day 3, 6.00 hrs
[15] = 2 mg/kg IP QD x 3 days, Day 3, 24.0 hrs
[16] = 10 mg/kg IP QD x 3 days, Day 1, 1.00 hrs
[17] = 10 mg/kg IP QD x 3 days, Day 1, 2.00 hrs
[18] = 10 mg/kg IP QD x 3 days, Day 1, 6.00 hrs
[19] = 10 mg/kg IP QD x 3 days, Day 1, 24.0 hrs
[20] = 10 mg/kg IP QD x 3 days, Day 2, 2.00 hrs
[21] = 10 mg/kg IP QD x 3 days, Day 2, 24.0 hrs

CO[C@H]1C[C@@H]2CC[C@@H](C)[C@@](O)(O2)C(=O)C(=O)N2CCCC[C@H]2C(=O)O[C@H]([C@H](C)C[C@@H]2C[C@@H]3C[C@H]2C[C@H]3O)CC(=O)[C@H](C)/C=C(\C)[C@@H](O)[C@@H](OC)C(=O)[C@H](C)C[C@H](C)/C=C/C=C/C=C/1C [Formula I, 37R-hydroxynorbornylrapamycin]
Concentration in Mouse Whole Blood, Mean [1, 4]: 529 ng/mL | Concentration in Mouse Whole Blood, individual animals 1-3 [1, 4]: 519 ng/mL and 530 ng/mL and 537 ng/mL | Concentration in Mouse Whole Blood, Mean [1, 5]: 431 ng/mL | Concentration in Mouse Whole Blood, individual animals 1-3 [1, 5]: 668 ng/mL and 392 ng/mL and 233 ng/mL | Concentration in Mouse Whole Blood, Mean [1, 6]: 486 ng/mL | Concentration in Mouse Whole Blood, individual animals 1-3 [1, 6]: 468 ng/mL and 646 ng/mL and 344 ng/mL | Concentration in Mouse Whole Blood, Mean [1, 7]: 36.6 ng/mL | Concentration in Mouse Whole Blood, individual animals 1-3 [1, 7]: 35.8 ng/mL and 48.0 ng/mL and 26.0 ng/mL | Concentration in Mouse Whole Blood, Mean [1, 8]: 569 ng/mL | Concentration in Mouse Whole Blood, individual animals 1-3 [1, 8]: 682 ng/mL and 670 ng/mL and 354 ng/mL | Concentration in Mouse Whole Blood, Mean [1, 9]: 814 ng/mL | Concentration in Mouse Whole Blood, individual animals 1-3 [1, 9]: 746 ng/mL and 841 ng/mL and 854 ng/mL | Concentration in Mouse Whole Blood, Mean [1, 10]: 552 ng/mL | Concentration in Mouse Whole Blood, individual animals 1-3 [1, 10]: 537 ng/mL and 803 ng/mL and 315 ng/mL | Concentration in Mouse Whole Blood, Mean [1, 11]: 47.8 ng/mL | Concentration in Mouse Whole Blood, individual animals 1-3 [1, 11]: 26.8 ng/mL and 76.5 ng/mL and 40.1 ng/mL | Concentration in Mouse Whole Blood, Mean [1, 12]: 946 ng/mL | Concentration in Mouse Whole Blood, individual animals 1-3 [1, 12]: 968 ng/mL and 885 ng/mL and 986 ng/mL | Concentration in Mouse Whole Blood, Mean [1, 13]: 583 ng/mL | Concentration in Mouse Whole Blood, individual animals 1-3 [1, 13]: 760 ng/mL and 707 ng/mL and 282 ng/mL | Concentration in Mouse Whole Blood, Mean [1, 14]: 630 ng/mL | Concentration in Mouse Whole Blood, individual animals 1-3 [1, 14]: 560 ng/mL and 860 ng/mL and 469 ng/mL | Concentration in Mouse Whole Blood, Mean [1, 15]: 62.5 ng/mL | Concentration in Mouse Whole Blood, individual animals 1-3 [1, 15]: 45.7 ng/mL and 92.2 ng/mL and 49.7 ng/mL | Concentrations in whole blood over time (in words) ([1]; 2 mg/kg or 10 mg/kg IP QD for three days): sufficient concentrations in whole blood over time | Concentration in Mouse Whole Blood, Mean [1, 16]: 778 ng/mL | Concentration in Mouse Whole Blood, individual animals 4-6 [1, 16]: 744 ng/mL and 736 ng/mL and 853 ng/mL | Concentration in Mouse Whole Blood, Mean [1, 17]: 2340 ng/mL | Concentration in Mouse Whole Blood, individual animals 4-6 [1, 17]: 2390 ng/mL and 2040 ng/mL and 2590 ng/mL | Concentration in Mouse Whole Blood, Mean [1, 18]: 1726 ng/mL | Concentration in Mouse Whole Blood, individual animals 4-6 [1, 18]: 1970 ng/mL and 2300 ng/mL and 908 ng/mL | Concentration in Mouse Whole Blood, Mean [1, 19]: 273 ng/mL | Concentration in Mouse Whole Blood, individual animals 4-6 [1, 19]: 357 ng/mL and 320 ng/mL and 141 ng/mL | Concentration in Mouse Whole Blood, individual animals 4-6 ([1]; 10 mg/kg IP QD x 3 days, Day 2, 1.00 hrs): AQL (Original value above quantitation limit (1000 ng/mL)) and 3130 ng/mL and 739 ng/mL | Concentration in Mouse Whole Blood, Mean ([1]; 10 mg/kg IP QD x 3 days, Day 2, 1.00 hrs, one animal AQL): 1935 ng/mL | Concentration in Mouse Whole Blood, Mean [1, 20]: 2820 ng/mL | Concentration in Mouse Whole Blood, individual animals 4-6 [1, 20]: 3060 ng/mL and 2660 ng/mL and 2740 ng/mL | Concentration in Mouse Whole Blood, individual animals 4-6 ([1]; 10 mg/kg IP QD x 3 days, Day 2, 6.00 hrs): AQL (Original value above quantitation limit (1000 ng/mL)) (2×) and 811 ng/mL | Concentration in Mouse Whole Blood, Mean ([1]; 10 mg/kg IP QD x 3 days, Day 2, 6.00 hrs, two animals AQL): 811 ng/mL | Concentration in Mouse Whole Blood, Mean [1, 21]: 335 ng/mL | Concentration in Mouse Whole Blood, individual animals 4-6 [1, 21]: 335 ng/mL and 472 ng/mL and 199 ng/mL | Concentration in Mouse Whole Blood, individual animals 4-6 ([1]; 10 mg/kg IP QD x 3 days, Day 3, 1.00 hrs): 3490 ng/mL and 3220 ng/mL | Concentration in Mouse Whole Blood, individual animals 4-6 ([1]; 10 mg/kg IP QD x 3 days, Day 3, 2.00 hrs): 2530 ng/mL and 2680 ng/mL and 482 ng/mL | Concentration in Mouse Whole Blood, individual animals 4-6 ([1]; 10 mg/kg IP QD x 3 days, Day 3, 6.00 hrs): 966 ng/mL and 2410 ng/mL and 773 ng/mL | Concentration in Mouse Whole Blood, individual animals 4-6 ([1]; 10 mg/kg IP QD x 3 days, Day 3, 24.0 hrs): 548 ng/mL and 276 ng/mL | Body Wt. % Δ from Baseline, Mean [2]: 14.24% | Body Wt. % Δ from Baseline, Median [2]: 14.91% | Percent Survival [3]: 100%
